This is an account of results in ChEMBL document CHEMBL1201862, “PubChem BioAssay data set” (2004).

Calls of active or inactive are those of the source. A value given as a limit tells only on which side of the number the result lay.

Type in all cases: functional
In test [1] the target is T1, Apoptotic protease-activating factor 1 (Homo sapiens, UniProt O14727).
T1 sequence (O14727 whole entry): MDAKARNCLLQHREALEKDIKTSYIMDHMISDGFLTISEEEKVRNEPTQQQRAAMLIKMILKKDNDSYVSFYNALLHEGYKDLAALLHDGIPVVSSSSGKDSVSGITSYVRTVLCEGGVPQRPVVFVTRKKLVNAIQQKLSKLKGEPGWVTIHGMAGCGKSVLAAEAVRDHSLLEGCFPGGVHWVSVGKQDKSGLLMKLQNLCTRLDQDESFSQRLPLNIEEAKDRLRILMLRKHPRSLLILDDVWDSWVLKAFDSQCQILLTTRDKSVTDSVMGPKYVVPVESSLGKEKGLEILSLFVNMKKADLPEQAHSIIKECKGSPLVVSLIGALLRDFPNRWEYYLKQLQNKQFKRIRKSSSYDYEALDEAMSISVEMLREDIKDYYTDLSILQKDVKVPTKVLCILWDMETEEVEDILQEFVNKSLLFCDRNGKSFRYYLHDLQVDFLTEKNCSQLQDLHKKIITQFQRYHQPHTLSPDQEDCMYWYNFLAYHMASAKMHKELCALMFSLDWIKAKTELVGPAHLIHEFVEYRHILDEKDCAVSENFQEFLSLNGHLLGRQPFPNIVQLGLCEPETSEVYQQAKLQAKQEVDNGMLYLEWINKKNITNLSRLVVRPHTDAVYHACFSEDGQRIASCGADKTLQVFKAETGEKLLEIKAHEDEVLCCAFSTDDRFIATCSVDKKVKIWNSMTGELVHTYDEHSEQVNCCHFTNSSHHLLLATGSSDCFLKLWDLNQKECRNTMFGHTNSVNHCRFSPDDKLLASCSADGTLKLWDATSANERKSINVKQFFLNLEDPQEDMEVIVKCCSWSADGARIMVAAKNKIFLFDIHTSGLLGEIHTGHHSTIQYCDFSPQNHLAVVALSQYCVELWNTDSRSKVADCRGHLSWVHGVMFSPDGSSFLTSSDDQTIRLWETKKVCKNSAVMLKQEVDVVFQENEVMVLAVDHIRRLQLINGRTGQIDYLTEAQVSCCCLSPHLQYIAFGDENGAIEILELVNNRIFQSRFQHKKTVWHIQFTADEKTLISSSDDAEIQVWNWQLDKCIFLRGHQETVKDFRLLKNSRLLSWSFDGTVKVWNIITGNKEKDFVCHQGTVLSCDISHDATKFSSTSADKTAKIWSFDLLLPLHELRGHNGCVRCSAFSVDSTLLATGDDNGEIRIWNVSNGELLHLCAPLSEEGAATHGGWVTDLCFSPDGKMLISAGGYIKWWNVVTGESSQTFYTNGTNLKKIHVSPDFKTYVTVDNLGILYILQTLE

Test [2] deals with Protein kinase C theta type (Homo sapiens, UniProt Q04759). Briefly: Navigating the Kinome. Panel member name: PRKCQ.
Test [3] has as its target Fibroblast growth factor receptor 1 (Homo sapiens, UniProt P11362).
Test [4] concerns the target Glycogen synthase kinase-3 alpha (Homo sapiens, UniProt P49840).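 Also: GSK3A result taken from a broad kinome-wide kinase panel.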
The target in test [5] is T2, Mitogen-activated protein kinase kinase kinase kinase 2 (Homo sapiens, UniProt Q12851).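 Also: measured as one member of a kinome-wide kinase panel, with MAP4K2 as the panel entry.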
T2 sequence (Q12851 whole entry): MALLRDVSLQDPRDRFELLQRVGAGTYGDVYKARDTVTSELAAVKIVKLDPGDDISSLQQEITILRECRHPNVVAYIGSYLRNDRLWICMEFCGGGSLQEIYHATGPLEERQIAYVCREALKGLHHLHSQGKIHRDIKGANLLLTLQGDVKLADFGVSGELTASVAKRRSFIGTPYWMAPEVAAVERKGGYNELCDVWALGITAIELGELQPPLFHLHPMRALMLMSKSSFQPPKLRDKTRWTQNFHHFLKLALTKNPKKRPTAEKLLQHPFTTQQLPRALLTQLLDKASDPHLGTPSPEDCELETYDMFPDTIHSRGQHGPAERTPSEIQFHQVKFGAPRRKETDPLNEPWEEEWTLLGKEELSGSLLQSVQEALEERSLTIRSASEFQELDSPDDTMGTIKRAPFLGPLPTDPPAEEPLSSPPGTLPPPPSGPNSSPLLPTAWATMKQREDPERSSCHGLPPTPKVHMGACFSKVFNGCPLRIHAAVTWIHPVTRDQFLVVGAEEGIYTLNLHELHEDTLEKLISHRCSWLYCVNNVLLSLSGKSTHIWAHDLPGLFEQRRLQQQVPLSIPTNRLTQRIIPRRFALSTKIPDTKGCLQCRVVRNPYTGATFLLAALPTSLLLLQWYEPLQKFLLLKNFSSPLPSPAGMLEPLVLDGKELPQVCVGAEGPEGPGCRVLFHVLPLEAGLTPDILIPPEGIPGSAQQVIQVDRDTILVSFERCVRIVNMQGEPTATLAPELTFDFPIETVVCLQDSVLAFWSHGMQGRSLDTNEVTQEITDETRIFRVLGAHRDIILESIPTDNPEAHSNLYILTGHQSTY

Test [6] concerns the target T3, Serine/threonine-protein kinase Chk1 (Homo sapiens, UniProt O14757).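 Also: measured as one member of a kinome-wide kinase profiling panel.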
T3 sequence (O14757 whole entry): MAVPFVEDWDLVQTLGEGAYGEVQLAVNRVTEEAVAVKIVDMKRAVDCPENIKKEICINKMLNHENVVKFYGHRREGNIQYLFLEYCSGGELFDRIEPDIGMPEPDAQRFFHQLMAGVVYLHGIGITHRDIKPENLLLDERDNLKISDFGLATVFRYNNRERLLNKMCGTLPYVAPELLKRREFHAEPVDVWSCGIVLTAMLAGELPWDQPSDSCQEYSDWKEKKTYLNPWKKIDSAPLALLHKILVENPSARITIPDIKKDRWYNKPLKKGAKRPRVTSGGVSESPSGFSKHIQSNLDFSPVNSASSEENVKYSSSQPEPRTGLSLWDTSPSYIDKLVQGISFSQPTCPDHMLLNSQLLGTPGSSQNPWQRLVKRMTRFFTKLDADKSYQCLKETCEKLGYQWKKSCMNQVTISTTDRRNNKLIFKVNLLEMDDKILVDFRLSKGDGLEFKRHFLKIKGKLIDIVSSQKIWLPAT

The next test has as its target Aurora kinase B (Homo sapiens, UniProt Q96GD4).
The target in test [7] is Cyclin-dependent kinase 7 (Homo sapiens, UniProt P50613).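 Also: value comes from a kinome-wide kinase profiling panel in which CDK7 is one member.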
Test [8] concerns the target Mitogen-activated protein kinase kinase kinase kinase 4 (Homo sapiens, UniProt O95819).

Protein kinase C theta type, sequence (Q04759 whole entry): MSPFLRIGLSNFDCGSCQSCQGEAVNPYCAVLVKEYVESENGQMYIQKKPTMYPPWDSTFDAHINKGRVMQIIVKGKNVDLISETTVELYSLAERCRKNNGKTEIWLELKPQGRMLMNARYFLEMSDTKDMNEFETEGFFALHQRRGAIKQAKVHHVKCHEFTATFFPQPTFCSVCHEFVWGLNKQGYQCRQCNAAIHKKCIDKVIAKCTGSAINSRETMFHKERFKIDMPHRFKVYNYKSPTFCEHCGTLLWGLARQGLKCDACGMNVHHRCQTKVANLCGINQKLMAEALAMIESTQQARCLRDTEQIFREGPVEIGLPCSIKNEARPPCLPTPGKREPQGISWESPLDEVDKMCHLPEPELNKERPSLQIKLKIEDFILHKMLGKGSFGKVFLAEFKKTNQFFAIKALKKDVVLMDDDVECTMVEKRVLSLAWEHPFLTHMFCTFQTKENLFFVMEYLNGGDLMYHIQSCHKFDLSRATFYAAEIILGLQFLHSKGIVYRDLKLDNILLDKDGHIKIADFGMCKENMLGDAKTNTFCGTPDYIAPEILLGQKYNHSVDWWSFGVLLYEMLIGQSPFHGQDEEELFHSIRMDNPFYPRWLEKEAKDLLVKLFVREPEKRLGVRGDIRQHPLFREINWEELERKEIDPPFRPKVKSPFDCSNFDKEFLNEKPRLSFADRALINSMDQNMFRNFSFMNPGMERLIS
Cyclin-dependent kinase 7, sequence (P50613 whole entry): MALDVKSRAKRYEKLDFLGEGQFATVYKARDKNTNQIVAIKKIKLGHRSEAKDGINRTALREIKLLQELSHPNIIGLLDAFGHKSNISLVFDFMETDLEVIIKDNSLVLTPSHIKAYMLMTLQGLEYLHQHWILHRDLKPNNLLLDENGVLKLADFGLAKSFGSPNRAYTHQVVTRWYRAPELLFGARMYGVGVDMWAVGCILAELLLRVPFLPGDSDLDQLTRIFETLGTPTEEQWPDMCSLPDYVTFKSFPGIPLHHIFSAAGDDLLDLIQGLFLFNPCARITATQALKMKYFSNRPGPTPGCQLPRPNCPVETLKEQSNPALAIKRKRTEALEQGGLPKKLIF
Mitogen-activated protein kinase kinase kinase kinase 4, sequence (O95819 whole entry): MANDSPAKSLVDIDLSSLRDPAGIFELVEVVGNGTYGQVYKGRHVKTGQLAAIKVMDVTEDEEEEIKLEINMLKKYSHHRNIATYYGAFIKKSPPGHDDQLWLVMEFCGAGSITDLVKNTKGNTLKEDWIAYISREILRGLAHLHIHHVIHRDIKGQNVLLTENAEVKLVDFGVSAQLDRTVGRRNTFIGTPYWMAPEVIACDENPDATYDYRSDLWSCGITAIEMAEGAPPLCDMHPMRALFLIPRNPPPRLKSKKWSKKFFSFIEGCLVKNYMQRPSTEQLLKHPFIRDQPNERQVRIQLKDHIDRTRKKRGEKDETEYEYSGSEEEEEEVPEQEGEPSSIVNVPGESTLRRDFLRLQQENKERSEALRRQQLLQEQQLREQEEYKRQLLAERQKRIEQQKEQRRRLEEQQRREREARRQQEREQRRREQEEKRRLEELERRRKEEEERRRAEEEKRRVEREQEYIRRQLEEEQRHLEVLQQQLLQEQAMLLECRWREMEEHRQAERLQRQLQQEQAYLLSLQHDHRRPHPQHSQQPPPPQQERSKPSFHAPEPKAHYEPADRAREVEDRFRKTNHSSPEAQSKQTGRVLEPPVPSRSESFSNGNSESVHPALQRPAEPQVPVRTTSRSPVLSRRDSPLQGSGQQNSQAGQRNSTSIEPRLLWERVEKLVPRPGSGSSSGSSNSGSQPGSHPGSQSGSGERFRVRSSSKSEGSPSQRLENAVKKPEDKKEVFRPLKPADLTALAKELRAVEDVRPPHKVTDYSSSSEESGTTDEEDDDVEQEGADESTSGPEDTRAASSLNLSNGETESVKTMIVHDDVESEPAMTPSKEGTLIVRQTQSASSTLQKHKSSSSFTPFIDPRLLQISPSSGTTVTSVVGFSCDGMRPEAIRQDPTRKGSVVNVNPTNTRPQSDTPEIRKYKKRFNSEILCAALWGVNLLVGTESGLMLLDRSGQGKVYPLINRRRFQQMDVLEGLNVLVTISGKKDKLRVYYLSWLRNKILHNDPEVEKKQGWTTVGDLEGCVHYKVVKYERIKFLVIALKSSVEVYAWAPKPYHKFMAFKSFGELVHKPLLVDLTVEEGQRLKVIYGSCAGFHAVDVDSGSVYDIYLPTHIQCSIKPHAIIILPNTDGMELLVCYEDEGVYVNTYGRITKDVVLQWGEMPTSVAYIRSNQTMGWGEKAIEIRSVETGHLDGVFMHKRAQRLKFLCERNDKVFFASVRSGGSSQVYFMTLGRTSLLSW
Aurora kinase B, sequence (Q96GD4 whole entry): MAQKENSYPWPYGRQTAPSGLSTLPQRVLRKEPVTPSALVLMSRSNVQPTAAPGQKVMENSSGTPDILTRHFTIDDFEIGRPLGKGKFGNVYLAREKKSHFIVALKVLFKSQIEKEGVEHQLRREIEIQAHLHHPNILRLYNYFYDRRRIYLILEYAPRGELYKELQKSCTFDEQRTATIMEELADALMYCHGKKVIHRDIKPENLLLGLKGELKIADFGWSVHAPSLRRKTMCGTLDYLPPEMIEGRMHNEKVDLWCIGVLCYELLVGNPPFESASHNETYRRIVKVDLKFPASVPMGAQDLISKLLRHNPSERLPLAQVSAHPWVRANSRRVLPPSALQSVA
Fibroblast growth factor receptor 1, sequence (P11362 whole entry): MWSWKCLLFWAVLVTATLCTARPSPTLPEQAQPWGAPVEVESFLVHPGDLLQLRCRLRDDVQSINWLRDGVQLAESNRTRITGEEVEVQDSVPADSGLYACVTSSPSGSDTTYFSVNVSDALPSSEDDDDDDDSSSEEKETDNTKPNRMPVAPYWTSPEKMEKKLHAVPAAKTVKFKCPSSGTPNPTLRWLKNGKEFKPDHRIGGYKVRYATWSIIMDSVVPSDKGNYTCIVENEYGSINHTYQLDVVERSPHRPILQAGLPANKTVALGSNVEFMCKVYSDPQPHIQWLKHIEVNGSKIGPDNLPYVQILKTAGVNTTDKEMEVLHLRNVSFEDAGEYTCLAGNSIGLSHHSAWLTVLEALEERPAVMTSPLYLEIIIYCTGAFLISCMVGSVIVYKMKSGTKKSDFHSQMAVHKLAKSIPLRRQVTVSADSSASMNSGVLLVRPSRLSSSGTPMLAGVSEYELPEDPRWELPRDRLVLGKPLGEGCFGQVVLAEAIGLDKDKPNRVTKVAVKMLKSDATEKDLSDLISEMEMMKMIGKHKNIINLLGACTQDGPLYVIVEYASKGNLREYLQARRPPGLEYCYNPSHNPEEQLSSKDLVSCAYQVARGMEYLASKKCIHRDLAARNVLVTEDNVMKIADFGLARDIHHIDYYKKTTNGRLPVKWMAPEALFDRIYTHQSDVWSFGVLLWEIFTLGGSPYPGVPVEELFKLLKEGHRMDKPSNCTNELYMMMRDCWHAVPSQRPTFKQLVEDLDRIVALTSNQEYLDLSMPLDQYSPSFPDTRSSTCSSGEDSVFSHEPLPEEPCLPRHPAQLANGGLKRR
Glycogen synthase kinase-3 alpha, sequence (P49840 whole entry): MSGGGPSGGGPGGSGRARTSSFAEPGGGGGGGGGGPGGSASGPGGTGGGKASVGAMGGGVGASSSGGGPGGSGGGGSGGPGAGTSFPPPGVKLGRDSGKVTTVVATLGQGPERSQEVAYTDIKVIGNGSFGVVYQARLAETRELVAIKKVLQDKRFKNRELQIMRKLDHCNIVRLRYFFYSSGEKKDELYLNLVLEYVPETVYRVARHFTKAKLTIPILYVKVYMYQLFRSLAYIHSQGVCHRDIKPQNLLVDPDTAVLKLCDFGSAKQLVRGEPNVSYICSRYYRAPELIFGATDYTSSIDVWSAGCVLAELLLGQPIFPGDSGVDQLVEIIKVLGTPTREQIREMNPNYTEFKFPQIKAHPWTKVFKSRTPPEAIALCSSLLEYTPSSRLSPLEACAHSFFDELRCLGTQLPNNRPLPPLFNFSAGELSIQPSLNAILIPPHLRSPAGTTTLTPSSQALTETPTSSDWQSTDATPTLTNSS

Regarding `CCN(CC)CCOc1ccc2c(c1)C(=NNC(=O)c1ccccn1)c1cc(OCCN(CC)CC)ccc1-2`, the IC50 in [1] is 10200 nM (active).

Consider `O=C(NC1=C(Nc2ccc(F)cc2)C(=O)c2ccccc2C1=O)c1ccc(Cl)cc1`, for which the IC50 in test [1] was 16200 nM (active).

Regarding `COc1cc2cc(NC(C)=O)cc(NCc3ccccc3)c2cc1OC`, in [1], the IC50 was 20700 nM (active).

In the case of `Oc1nc(Nc2ccc(F)cc2)cc2ccccc12`, the IC50 in test [1] was 3760 nM (active).

With `CN(C)c1cc(N/N=C\c2ccccc2)nc(N(C)C)n1`, the IC50 in [1] is 1100 nM (active).

For the compound `O=C1Nc2cc(-c3ccc(O)cc3)ccc2C1=Cc1ccc[nH]1`, the Ki in [2] is 316 nM (active); in [3], 1260 nM (active); in test [4] it was 631 nM (active); in test [5] it was 31.6 nM (active); in test [6], 20 nM (active); on Aurora kinase B it was 20 nM (active). Besides, the Ki in [7] was > 3980 nM (inactive); in [8], 20 nM (active).

On to `NC(COc1cncc(-c2ccc3c(c2)C(=Cc2ccc[nH]2)C(=O)N3)c1)Cc1ccccc1` (centres undefined), for which the Ki in test [2] was 3.98 nM (active); in test [3], 126 nM (active); in test [4], 1.26 nM (active); in test [5], 15.8 nM (active); in test [6], 251 nM (active); on Aurora kinase B it was 39.8 nM (active). Besides, the Ki in test [7] is 10 nM (active); in [8], 5.01 nM (active).

Take `O=C1Cc2cc(-c3ccccc3)cnc2N1`: the inhibitory constant (Ki) in test [2] was 63100 nM (active); in test [3], 50100 nM (active); in [4], 15800 nM (active); in test [5], 31600 nM (active); in test [6], 3980 nM (active); on Aurora kinase B it was 31600 nM (active). In addition, the Ki in [7] was 39800 nM (active); in [8], 79400 nM (active).

For orientation: IC50 means the midpoint of a concentration-inhibition curve. What is called Ki is the equilibrium dissociation constant of an inhibitor or competing ligand from its target.
